{"source": "the supplement of paper PMC10307832", "assay_in_all_cases": "relative viability (nuclei count vs DMSO), 5 days (fraction); higher = more cells survive", "key": {"201T": {"tested_on": "201T", "in_short": "(§1)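 Lung cancer cell lines were pin-tool dosed in 1536-well plates on the day after seeding, with either a lone drug or a fixed anchor-drug dose plus five library-drug doses (not always all listed) in √10 steps. Nuclei were counted on 4× images after 5 days. Relative viability is the ratio of treated-well to vehicle-well nuclei counts, with each value a median of duplicate plates.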"}, "BEN": {"tested_on": "BEN", "in_short": "as §1"}, "COR-L 105": {"tested_on": "COR-L 105", "in_short": "as §1"}, "EKVX": {"tested_on": "EKVX", "in_short": "as §1"}, "EPLC-272H": {"tested_on": "EPLC-272H", "in_short": "as §1"}, "H3255": {"tested_on": "H3255", "in_short": "as §1"}, "HCC-44": {"tested_on": "HCC-44", "in_short": "as §1"}, "HCC-827": {"tested_on": "HCC-827", "in_short": "as §1"}, "HOP-62": {"tested_on": "HOP-62", "in_short": "as §1"}, "LCLC-97TM1": {"tested_on": "LCLC-97TM1", "in_short": "as §1"}, "LOU-NH91": {"tested_on": "LOU-NH91", "in_short": "as §1"}, "LU99A": {"tested_on": "LU99A", "in_short": "as §1"}, "NCI-H1395": {"tested_on": "NCI-H1395", "in_short": "as §1"}, "NCI-H1437": {"tested_on": "NCI-H1437", "in_short": "as §1"}, "NCI-H1666": {"tested_on": "NCI-H1666", "in_short": "as §1"}, "NCI-H1975": {"tested_on": "NCI-H1975", "in_short": "as §1"}, "NCI-H2085": {"tested_on": "NCI-H2085", "in_short": "as §1"}, "NCI-H2087": {"tested_on": "NCI-H2087", "in_short": "as §1"}, "NCI-H358": {"tested_on": "NCI-H358", "in_short": "as §1"}, "NCI-H647": {"tested_on": "NCI-H647", "in_short": "as §1"}, "PC-3 [JPC-3]": {"tested_on": "PC-3 [JPC-3]", "in_short": "as §1"}, "SW 1573": {"tested_on": "SW 1573", "in_short": "as §1"}}}
{"compound": "Oc1nc(-c2ccc(C(F)(F)F)cc2)nc2c1CSCC2", "note": "[XAV939] + Cc1nc(NC(=O)N2CCC[C@H]2C(N)=O)sc1-c1ccnc(C(C)(C)C(F)(F)F)c1 [Alpelisib] (partner 2 µM)", "values": [{"measurement": "relative viability", "setting": "201T; first compound 0.08 µM", "value": 1}, {"measurement": "relative viability", "setting": "201T; first compound 0.253 µM", "value": 0.875}, {"measurement": "relative viability", "setting": "201T; first compound 0.8 µM", "value": 0.947}, {"measurement": "relative viability", "setting": "201T; first compound 2.53 µM", "value": 0.902}, {"measurement": "relative viability", "setting": "BEN; first compound 0.08 µM", "value": 1.08}, {"measurement": "relative viability", "setting": "BEN; first compound 0.253 µM", "value": 0.921}, {"measurement": "relative viability", "setting": "BEN; first compound 0.8 µM", "value": 1.01}, {"measurement": "relative viability", "setting": "COR-L 105; first compound 0.08 µM", "value": 1.14}, {"measurement": "relative viability", "setting": "COR-L 105; first compound 0.253 µM", "value": 0.867}, {"measurement": "relative viability", "setting": "COR-L 105; first compound 0.8 µM", "value": 0.952}, {"measurement": "relative viability", "setting": "COR-L 105; first compound 2.53 µM", "value": 0.576}, {"measurement": "relative viability", "setting": "EKVX; first compound 0.08 µM", "value": 0.825}, {"measurement": "relative viability", "setting": "EKVX; first compound 0.253 µM", "value": 0.67}, {"measurement": "relative viability", "setting": "EKVX; first compound 0.8 µM", "value": 0.731}, {"measurement": "relative viability", "setting": "EKVX; first compound 2.53 µM", "value": 0.548}, {"measurement": "relative viability", "setting": "EPLC-272H; first compound 0.08 µM", "value": 0.958}, {"measurement": "relative viability", "setting": "EPLC-272H; first compound 0.253 µM", "value": 0.863}, {"measurement": "relative viability", "setting": "EPLC-272H; first compound 0.8 µM", "value": 0.908}, {"measurement": "relative viability", "setting": "EPLC-272H; first compound 2.53 µM", "value": 0.889}, {"measurement": "relative viability", "setting": "H3255; first compound 0.08 µM", "value": 0.965}, {"measurement": "relative viability", "setting": "H3255; first compound 0.253 µM", "value": 0.709}, {"measurement": "relative viability", "setting": "H3255; first compound 0.8 µM", "value": 0.414}, {"measurement": "relative viability", "setting": "H3255; first compound 2.53 µM", "value": 0.522}, {"measurement": "relative viability", "setting": "HCC-44; first compound 0.08 µM", "value": 0.953}, {"measurement": "relative viability", "setting": "HCC-44; first compound 0.253 µM", "value": 0.675}, {"measurement": "relative viability", "setting": "HCC-44; first compound 0.8 µM", "value": 0.775}, {"measurement": "relative viability", "setting": "HCC-44; first compound 2.53 µM", "value": 0.737}, {"measurement": "relative viability", "setting": "HCC-827; first compound 0.08 µM", "value": 1.04}, {"measurement": "relative viability", "setting": "HCC-827; first compound 0.253 µM", "value": 0.934}, {"measurement": "relative viability", "setting": "HCC-827; first compound 0.8 µM", "value": 0.967}, {"measurement": "relative viability", "setting": "HCC-827; first compound 2.53 µM", "value": 0.969}, {"measurement": "relative viability", "setting": "HOP-62; first compound 0.08 µM", "value": 1.02}, {"measurement": "relative viability", "setting": "HOP-62; first compound 0.253 µM", "value": 0.54}, {"measurement": "relative viability", "setting": "HOP-62; first compound 0.8 µM", "value": 0.673}, {"measurement": "relative viability", "setting": "HOP-62; first compound 2.53 µM", "value": 0.69}, {"measurement": "relative viability", "setting": "LCLC-97TM1; first compound 0.08 µM", "value": 0.256}, {"measurement": "relative viability", "setting": "LCLC-97TM1; first compound 0.253 µM", "value": 0.232}, {"measurement": "relative viability", "setting": "LCLC-97TM1; first compound 0.8 µM", "value": 0.252}, {"measurement": "relative viability", "setting": "LCLC-97TM1; first compound 2.53 µM", "value": 0.243}, {"measurement": "relative viability", "setting": "LOU-NH91; first compound 0.08 µM", "value": 0.687}, {"measurement": "relative viability", "setting": "LOU-NH91; first compound 0.253 µM", "value": 0.659}, {"measurement": "relative viability", "setting": "LOU-NH91; first compound 0.8 µM", "value": 0.714}, {"measurement": "relative viability", "setting": "LOU-NH91; first compound 2.53 µM", "value": 0.648}, {"measurement": "relative viability", "setting": "LU99A; first compound 0.08 µM", "value": 0.501}, {"measurement": "relative viability", "setting": "LU99A; first compound 0.253 µM", "value": 0.579}, {"measurement": "relative viability", "setting": "LU99A; first compound 0.8 µM", "value": 0.494}, {"measurement": "relative viability", "setting": "LU99A; first compound 2.53 µM", "value": 0.4}, {"measurement": "relative viability", "setting": "NCI-H1395; first compound 0.08 µM", "value": 1.09}, {"measurement": "relative viability", "setting": "NCI-H1395; first compound 0.253 µM", "value": 1.03}, {"measurement": "relative viability", "setting": "NCI-H1395; first compound 0.8 µM", "value": 1.08}, {"measurement": "relative viability", "setting": "NCI-H1395; first compound 2.53 µM", "value": 1.06}, {"measurement": "relative viability", "setting": "NCI-H1437; first compound 0.08 µM", "value": 1.03}, {"measurement": "relative viability", "setting": "NCI-H1437; first compound 0.253 µM", "value": 0.709}, {"measurement": "relative viability", "setting": "NCI-H1437; first compound 0.8 µM", "value": 0.97}, {"measurement": "relative viability", "setting": "NCI-H1437; first compound 2.53 µM", "value": 0.715}, {"measurement": "relative viability", "setting": "NCI-H1666; first compound 0.08 µM", "value": 0.87}, {"measurement": "relative viability", "setting": "NCI-H1666; first compound 0.253 µM", "value": 0.63}, {"measurement": "relative viability", "setting": "NCI-H1666; first compound 0.8 µM", "value": 0.721}, {"measurement": "relative viability", "setting": "NCI-H1666; first compound 2.53 µM", "value": 0.591}, {"measurement": "relative viability", "setting": "NCI-H1975; first compound 0.08 µM", "value": 0.619}, {"measurement": "relative viability", "setting": "NCI-H1975; first compound 0.253 µM", "value": 0.573}, {"measurement": "relative viability", "setting": "NCI-H1975; first compound 0.8 µM", "value": 0.566}, {"measurement": "relative viability", "setting": "NCI-H1975; first compound 2.53 µM", "value": 0.445}, {"measurement": "relative viability", "setting": "NCI-H2085; first compound 0.08 µM", "value": 0.993}, {"measurement": "relative viability", "setting": "NCI-H2085; first compound 0.253 µM", "value": 0.898}, {"measurement": "relative viability", "setting": "NCI-H2085; first compound 0.8 µM", "value": 0.814}, {"measurement": "relative viability", "setting": "NCI-H2085; first compound 2.53 µM", "value": 0.737}, {"measurement": "relative viability", "setting": "NCI-H2087; first compound 0.08 µM", "value": 1.24}, {"measurement": "relative viability", "setting": "NCI-H2087; first compound 0.253 µM", "value": 0.914}, {"measurement": "relative viability", "setting": "NCI-H2087; first compound 0.8 µM", "value": 1.09}, {"measurement": "relative viability", "setting": "NCI-H2087; first compound 2.53 µM", "value": 0.889}, {"measurement": "relative viability", "setting": "NCI-H358; first compound 0.08 µM", "value": 0.815}, {"measurement": "relative viability", "setting": "NCI-H358; first compound 0.253 µM", "value": 0.671}, {"measurement": "relative viability", "setting": "NCI-H358; first compound 0.8 µM", "value": 0.915}, {"measurement": "relative viability", "setting": "NCI-H358; first compound 2.53 µM", "value": 0.591}, {"measurement": "relative viability", "setting": "NCI-H647; first compound 0.08 µM", "value": 1.25}, {"measurement": "relative viability", "setting": "NCI-H647; first compound 0.253 µM", "value": 1}, {"measurement": "relative viability", "setting": "NCI-H647; first compound 0.8 µM", "value": 1.06}, {"measurement": "relative viability", "setting": "NCI-H647; first compound 2.53 µM", "value": 0.922}, {"measurement": "relative viability", "setting": "PC-3 [JPC-3]; first compound 0.08 µM", "value": 1}, {"measurement": "relative viability", "setting": "PC-3 [JPC-3]; first compound 0.253 µM", "value": 0.962}, {"measurement": "relative viability", "setting": "PC-3 [JPC-3]; first compound 0.8 µM", "value": 1.07}, {"measurement": "relative viability", "setting": "PC-3 [JPC-3]; first compound 2.53 µM", "value": 0.962}, {"measurement": "relative viability", "setting": "SW 1573; first compound 0.08 µM", "value": 0.712}, {"measurement": "relative viability", "setting": "SW 1573; first compound 0.253 µM", "value": 0.552}, {"measurement": "relative viability", "setting": "SW 1573; first compound 0.8 µM", "value": 0.515}, {"measurement": "relative viability", "setting": "SW 1573; first compound 2.53 µM", "value": 0.464}]}
